Patent publication EP1951194B1, “ANTIMICROBIAL DECAPEPTIDE COMPOSITION FOR ORAL HYGIENE” (U.S. Government, as represented by the Secretary of the Army, priority 2005, dated 2018)
Entries after “also recorded” stand apart in the source; their conditions may differ. Ends that are not written are not given here.

Key:
[1] = tested on: oral biofilms; assay: Live/dead staining of treated biofilms, confocal laser scanning microscopy; type: cell-based, human salivary bacteria; conditions: biofilms on saliva-coated HA surfaces, BacLight, compared to control
Description: Untreated (a-b) and treated (c-d). Images were obtained at intervals of 2 h (a, c) and 8 h (b, d) following inoculation. […] Images of treated versus untreated biofilm cells were obtained at intervals of 2 h (a, d), 6 h (b, e), and 10 h (c, f) after inoculation of salivary bacteria into the parallel chambers of the dual flow cell. […] (C) Confocal images of control and treated biofilms grown on saliva-coated HA surfaces. Live/Dead BacLight™ Viability kit (Molecular Probes, Eugene, OR) was used to assess the viability of biofilm cells exposed to different treatments. BacLight assay solution was prepared as described by the manufacturer and the specimens were stained in dark at room temperature for 15 min. […] An excitation wavelength of 488 nm was used and the fluorescence light emitted was collected by two separate emission filters, 500-530 nm (SYTO 9, live), and 650-710 nm (propidium iodide, dead).

[2] = tested on: oral biofilms; assay: In vitro plaque assay, viable counts of biofilms on saliva-coated HA disks; type: cell-based, human salivary bacteria; conditions: for reduction of viability, intact 66 h-old oral biofilms, compared to water treatment: KSL 200 µg/ml, benzalkonium chloride 0.001%, alone or combined, chlorhexidine positive control
Description: In conjunction with the dual flow cell system, a modification of an in vitro plaque model of biofilm formation described by Guggenheim et al. (Guggenheim et al., 2001) was used to determine the effects of tested antimicrobials and other agents on developed oral biofilms (see Appendix I for details). HA disks (Clarkson, south Williamsport, PA) were employed as substrates for salivary bacteria to form biofilms. […] Following 30 min exposure at 37°C, disks were rinsed with 3 × 1 ml of saline and transferred to sterile 15 ml polypropylene tubes containing 1 ml PBS. Biofilm cells adherent to surfaces (after treatment) were recovered by sonicating for 2 min at 5 watts with a Microson ultrasonic cell disrupter equipped with a cup horn (Misonix Inc., Farmingdale, NY). Settings including the time interval used in the sonication were pre-determined empirically to yield maximal recovery of adherent biofilm cells. The effect of KSL on disrupted biofilms was assessed by recovering biofilm cells from HA disks (45 h-old biofilms) through sonication as described above. The detached biofilm cells (in sterile dH2O) were mixed with an equal volume of aqueous KSL to obtain a final peptide concentration of 200 µg/ml, and the reaction mixtures incubated at 37°C for 30 min. The interactions of KSL and suspended biofilm cells were terminated by washing in PBS. To determine the effect of the surface-active agent (benzalkonium chloride; Sigma, St. […] Viable counts of biofilm cells derived from treated disks or disrupted biofilms were determined by spiral plating serially diluted samples onto blood agar plates. […] The 45 h-old biofilms were exposed to chlorhexidine for 1 min, and to water for 30 min at 37°C.

[3] = type: physicochemical; conditions: pH 5.7
Description: Test solutions of KSL were prepared using a stock peptide solution of 10 mg/ml in deionized water. The degradation of KSL peptide was investigated in sodium acetate (pH 4), sodium phosphate (pH 7.4) and sodium borate (pH 9) buffers at 0.1 M buffer concentration. Each buffer solution containing 200 µg/ml of KSL was incubated in a temperature-controlled oven at 25, 37 and 55°C, respectively. Samples were taken at pre-determined times and analyzed under HPLC conditions described above. The stability of KSL was studied at 37°C in artificial saliva over a three day period. Artificial saliva was used in the in vitro release studies in an attempt to simulate actual conditions of use. The ingredients of the artificial saliva were as follows: sodium chloride, 0.844 g; potassium chloride, 1.200 g; calcium chloride dihydrate, 0.193 g; magnesium chloride hexahydrate, 0.111 g; potassium phosphate dibasic, 0.342 g; water to make to 1000 ml. The pH was adjusted with hydrochloric acid solution to pH 5.7 ± 0.1 [26].

[4] = type: physicochemical
Description: The chewing gum formulations were prepared following a procedure described previously. The gum base was heated at a temperature between 50 and 60°C for melting. When the gum base was of the proper fluid consistency, the KSL was added as a fine powder along with the other components. The temperature was kept constant while mixing the components with the gum base in a mortar. After mixing, the homogenous chewing gum mixture was extruded, cut into squares of approximate shape and size and hardened at room temperature overnight. The composition of the gum was as follows: 550 mg of gum base, 420 mg of sorbitol, 10 mg of mannitol, 10 mg of saccharin, and 10, 20 or 30 mg of KSL (total weight: approximately 1 g). In vitro release study of KSL from chewing gums was carried out using an in vitro chewing release apparatus consisting of two modules (AB FIA, Lund, Sweden) (Fig. 1). Each module consists of a thermostatted glass cell in which two vertically oriented pistons holding an upper and a lower chewing plate are mounted. The cells were filled with 40 ml of artificial saliva and the chewing gum was loaded onto the lower chewing surface. […] The released amount of KSL was determined by RP-HPLC.

Compound | viability of biofilm cells by live/dead staining [1] | reduction of viable counts, intact biofilms ([2]; intact 45-h-old biofilms, KSL 200 µg/ml 30 min at 37°C, chlorhexidine 0.12% 1 min) | degradation in artificial saliva (HPLC) [3] | stability of KSL in the gum formulations manufactured at 50-60°C (HPLC of released KSL) [4] | reduction of viability, intact 66 h-old oral biofilms, compared to water treatment [2] | reduction of viability, intact 66 h-old oral biofilms, compared to water treatment ([2]; listed as Bzl)
[H]/N=C(\N/C(=N/[H])NCCCCCCNC(=N)NC(=N)Nc1ccc(Cl)cc1)Nc1ccc(Cl)cc1 [chlorhexidine, chlorhexidine digluconate] | significantly reduced the viability | more reduction in viability; also recorded: larger reduction of viable counts |  |  |  | 
KKVVFKVKFK-NH2 [KSL, Lys-Lys-Val-Val-Phe-Lys-Val-Lys-Phe-Lys-NH2] |  |  | no degradation peak detected | only an intact KSL peak |  | 
benzalkonium chloride | less impact on the viability |  |  |  | less effect on the viability | no significant reductions in viability
